Laboratory results: patent US20230101963A1, “TREATMENT OF MEDICAL INDICATION” (VALLAURIX TRADING SARL MC, priority 2020, published 2023)

Key:
hMC2R = hMC2R (Homo sapiens, UniProt Q01718); experiment: agonist activity on hMC2R; assay type: biochemical; details: versus selective agonist affinity for hMC1R and hMC4R
[1] = in vivo
Text: For the purpose of the invention, the BBB permeability refers to the ability of a compound to cross the Blood-Brain-Barrier (BBB) that is intact, i.e. not leaking or otherwise compromised. Permeability can be determined based on presence of central effects (or side-effects). A compound with BBB permeability can show central effects or side-effects.
BBB permeable is the ability of a compound to pass the BBB that is intact and for instance not leaking or otherwise compromised. Permeability can be determined based on presence of central effects (or side-effects) after peripheral administration of the compound.

Sequence of hMC2R (Q01718 whole entry): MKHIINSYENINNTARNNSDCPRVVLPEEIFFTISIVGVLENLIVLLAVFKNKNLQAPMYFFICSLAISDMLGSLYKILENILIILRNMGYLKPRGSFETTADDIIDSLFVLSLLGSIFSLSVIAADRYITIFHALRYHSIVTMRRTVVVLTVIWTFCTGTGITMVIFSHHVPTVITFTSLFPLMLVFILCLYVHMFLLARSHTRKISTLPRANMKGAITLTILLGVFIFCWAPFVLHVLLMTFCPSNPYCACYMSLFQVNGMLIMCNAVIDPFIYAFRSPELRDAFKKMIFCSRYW
Sequence of hMC2R (Q8TCY5 whole entry partner): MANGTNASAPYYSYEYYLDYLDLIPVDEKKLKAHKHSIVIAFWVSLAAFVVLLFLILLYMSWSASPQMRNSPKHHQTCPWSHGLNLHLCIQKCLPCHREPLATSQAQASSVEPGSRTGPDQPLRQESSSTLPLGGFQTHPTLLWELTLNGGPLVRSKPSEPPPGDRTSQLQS

CCCC[C@H](NC(C)=O)C(=O)N[C@H]1CC(=O)NCCCC[C@@H](C(=O)O)NC(=O)[C@H](Cc2c[nH]c3ccccc23)NC(=O)[C@H](CCCN=C(N)N)NC(=O)[C@@H](Cc2ccccc2)NC(=O)[C@H](Cc2cnc[nH]2)NC1=O [bremelanotide, Ac-Nle-cyclo-(Asp-His-D-Phe-Arg-Trp-Lys-OH)]
activity on hMC2R (hMC2R): none | central activity in human, indicating passage of the human blood-brain-barrier [1]: show central activity in human
